The source of these data is US8748426B2, “Inhibitors of diacylglycerol acyl transferase” (Piramal Enterprises Limited, priority 2009, dated 2014).

One assay concerns the target T1, hDGAT1 (Homo sapiens, UniProt O75907).
T1 sequence (O75907 1-488): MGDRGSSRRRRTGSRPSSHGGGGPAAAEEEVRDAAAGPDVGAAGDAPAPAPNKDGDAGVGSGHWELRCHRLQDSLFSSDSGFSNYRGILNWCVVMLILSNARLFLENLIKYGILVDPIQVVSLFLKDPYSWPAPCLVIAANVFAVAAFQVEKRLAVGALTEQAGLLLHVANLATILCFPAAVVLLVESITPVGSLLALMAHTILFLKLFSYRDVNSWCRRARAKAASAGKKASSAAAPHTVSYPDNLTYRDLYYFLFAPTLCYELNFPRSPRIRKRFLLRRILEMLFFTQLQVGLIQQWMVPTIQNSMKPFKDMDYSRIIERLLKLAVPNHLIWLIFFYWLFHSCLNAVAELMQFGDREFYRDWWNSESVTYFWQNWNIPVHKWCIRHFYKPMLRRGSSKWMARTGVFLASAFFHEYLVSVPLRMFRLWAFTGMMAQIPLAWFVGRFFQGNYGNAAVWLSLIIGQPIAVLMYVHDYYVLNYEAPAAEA
The assay is described as follows: In-vitro DGAT1 assay (14C oleoyl CoA, hDGAT1 microsomes from Sf9 cells). The settings on record: at 1 μM.
Regarding `COC[C@@H](C(=O)O)N1Cc2ccc(-c3ccc(NC(=O)Nc4cccc(C(F)(F)F)c4)cc3)cc2C1=O` [Example 355], the “% Inhibition of hDGAT1” value was “+ (10-50% Inhibition)”.

The same assay, now with this note: read-out: % Inhibition of hDGAT1.
In general, inhibition refers to the percentage by which the read-out fell short of the control. On to `CC(C)C[C@@H](C(=O)O)N1Cc2ccc(-c3ccc(NC(=O)Nc4cccc(C(F)(F)F)c4)cc3)cc2C1=O` [Example 352, (S)-4-Methyl-2-(1-oxo-6-(4-(3-(3-(trifluoromethyl)phenyl)ureido)phenyl)isoindolin-2-yl)pentanoic acid], for which the inhibition at 1 µM lay in the range of 10 to 50%.
Same read-out and setting: for `CC(C)[C@H](C(=O)O)N1Cc2cc(-c3ccc(NC(=O)Nc4cccc(C(F)(F)F)c4)cc3)ccc2C1=O` [Example 361, (R)-3-Methyl-2-(1-oxo-5-(4-(3-(3-(trifluoromethyl)phenyl)ureido)phenyl)isoindolin-2-yl)butanoic acid] the value was 10 to 50%.
On the same count and under the same terms, for `O=C(O)CN1Cc2cc(-c3ccc(NC(=O)Nc4cccc(C(F)(F)F)c4)cc3)ccc2C1=O` [Example 364, 2-(1-Oxo-5-(4-(3-(3-(trifluoromethyl)phenyl)ureido)phenyl)isoindolin-2-yl)acetic acid] the value was 10 to 50%; for `C[C@@H](C(=O)O)N1Cc2cc(-c3ccc(NC(=O)Nc4cccc(C(F)(F)F)c4)cc3)ccc2C1=O` [Example 367, (S)-2-(1-Oxo-5-(4-(3-(3-(trifluoromethyl)phenyl)ureido)phenyl)isoindolin-2-yl)propanoic acid], over 50%; for `O=C(Nc1ccc(-c2ccc3c(c2)CN(C2(C(=O)O)CCCC2)C3=O)cc1)Nc1cccc(C(F)(F)F)c1` [Example 370, 1-(1-Oxo-5-(4-(3-(3-(trifluoromethyl)phenyl)ureido)phenyl)isoindolin-2-yl)cyclopentanecarboxylic acid], 10 to 50%.
On the same count and under the same terms, for `O=C(Nc1ccc(-c2ccc3c(c2)CN([C@H](C(=O)O)c2ccccc2)C3=O)cc1)Nc1cccc(C(F)(F)F)c1` [Example 373, (S)-2-(1-Oxo-5-(4-(3-(3-(trifluoromethyl)phenyl)ureido)phenyl)isoindolin-2-yl)-2-phenylacetic acid] the value was 10 to 50%; for `O=C(O)CCCN1Cc2cc(-c3ccc(NC(=O)Nc4cccc(C(F)(F)F)c4)cc3)ccc2C1=O` [Example 376, 4-(1-Oxo-5-(4-(3-(3-(trifluoromethyl)phenyl)ureido)phenyl)isoindolin-2-yl)butanoic acid], 10 to 50%; for `O=C(O)CCN1Cc2cc(-c3ccc(NC(=O)Nc4cccc(C(F)(F)F)c4)cc3)ccc2C1=O` [Example 379, 3-(1-Oxo-5-(4-(3-(3-(trifluoromethyl)phenyl)ureido)phenyl)isoindolin-2-yl)propanoic acid], 10 to 50%.
Consider `O=C(Nc1ccc(-c2ccc3c(c2)CN([C@@H](Cc2ccccc2)C(=O)O)C3=O)cc1)Nc1cccc(C(F)(F)F)c1` [Example 382, (S)-2-(1-Oxo-5-(4-(3-(3-(trifluoromethyl)phenyl)ureido)phenyl)isoindolin-2-yl)-3-phenylpropanoic acid], for which the inhibition at 1 µM lay in the range of 10 to 50%.
Consider `COC[C@@H](C(=O)O)N1Cc2cc(-c3ccc(NC(=O)Nc4cccc(C(F)(F)F)c4)cc3)ccc2C1=O` [Example 385, (S)-3-Methoxy-2-(1-oxo-5-(4-(3-(3-(trifluoromethyl)phenyl)ureido)phenyl)isoindolin-2-yl)propanoic acid], for which the inhibition at 1 µM is 10 to 50%.
In the case of `CC(C)C[C@@H](C(=O)O)N1Cc2cc(-c3ccc(NC(=O)Nc4cccc(C(F)(F)F)c4)cc3)ccc2C1=O` [Example 388, (S)-4-Methyl-2-(1-oxo-5-(4-(3-(3-(trifluoromethyl)phenyl)ureido)phenyl)isoindolin-2-yl)pentanoic acid], the inhibition at 1 µM lay within 10 to 50%.
On the same count and under the same terms, the value for `CC(C)[C@@H](C(=O)O)N1Cc2ccc(-c3ccc(NC(=O)Nc4ccccc4Cl)cn3)cc2C1=O` [Example 394, (S)-2-(6-(5-(3-(2-Chlorophenyl)ureido)pyridin-2-yl)-1-oxoisoindolin-2-yl)-3-methylbutanoic acid] was over 50%; that for `CC(C)[C@@H](C(=O)O)N1Cc2ccc(-c3ccc(NC(=O)Nc4ccc(Cl)cc4Oc4ccccc4)cn3)cc2C1=O` [Example 396, (S)-2-(6-(5-(3-(4-Chloro-2-phenoxyphenyl)ureido)pyridin-2-yl)-1-oxoisoindolin-2-yl)-3-methylbutanoic acid] was over 50%; that for `Cc1ccc(NC(=O)Nc2ccc(-c3ccc4c(c3)C(=O)N([C@H](C(=O)O)C(C)C)C4)nc2)cc1C` [Example 398, (S)-2-(6-(5-(3-(3,4-Dimethylphenyl)ureido)pyridin-2-yl)-1-oxoisoindolin-2-yl)-3-methylbutanoic acid] was over 50%.
On the same count and under the same terms, for `CC(C)[C@@H](C(=O)O)N1Cc2ccc(-c3ccc(NC(=O)Nc4ccc5c(c4)CCC5)cn3)cc2C1=O` [Example 402, (S)-2-(6-(5-(3-(2,3-Dihydro-1H-inden-5-yl)ureido)pyridin-2-yl)-1-oxoisoindolin-2-yl)-3-methylbutanoic acid] the value was over 50%.
On the same count and under the same terms, for `CC(C)[C@@H](C(=O)O)N1Cc2ccc(-c3ccc(NC(=O)c4ccc(C(C)(C)C)cc4)cn3)cc2C1=O` [Example 404, (S)-2-(6-(5-(4-tert-Butylbenzamido)pyridin-2-yl)-1-oxoisoindolin-2-yl)-3-methyl butanoic acid] the value was over 50%.
For the molecule `CCCCOc1ccc(C(=O)Nc2ccc(-c3ccc4c(c3)C(=O)N([C@H](C(=O)O)C(C)C)C4)nc2)cc1` [Example 412, (S)-2-(6-(5-(4-Butoxybenzamido)pyridin-2-yl)-1-oxoisoindolin-2-yl)-3-methylbutanoic acid], the inhibition at 1 µM was over 50%.
On the same count and under the same terms, for `CC(C)[C@@H](C(=O)O)N1Cc2ccc(-c3ccc(NC(=O)Nc4ccccc4Cl)cc3C(F)(F)F)cc2C1=O` [Example 416, (S)-2-(6-(4-(3-(2-Chlorophenyl)ureido)-2-(trifluoromethyl)phenyl)-1-oxoisoindolin-2-yl)-3-methylbutanoic acid] the value was 10 to 50%; for `CC(C)[C@@H](C(=O)O)N1Cc2ccc(-c3ccc(NC(=O)Nc4ccc(F)c(F)c4)cc3C(F)(F)F)cc2C1=O` [Example 418, (S)-2-(6-(4-(3-(3,4-Difluorophenyl)ureido)-2-(trifluoromethyl)phenyl)-1-oxoisoindolin-2-yl)-3-methylbutanoic acid], 10 to 50%.
The same measure, in the same setting: the value for `CC(C)[C@@H](C(=O)O)N1Cc2ccc(-c3ccc(NC(=O)Nc4ccc5c(c4)CCC5)cc3C(F)(F)F)cc2C1=O` [Example 420, (S)-2-(6-(4-(3-(2,3-Dihydro-1H-inden-5-yl)ureido)-2-(trifluoromethyl)phenyl)-1-oxoisoindolin-2-yl)-3-methylbutanoic acid] was 10 to 50%; that for `Cc1ccc(NC(=O)Nc2ccc(-c3ccc4c(c3)C(=O)N([C@H](C(=O)O)C(C)C)C4)c(C(F)(F)F)c2)cc1C` [Example 422, (S)-2-(6-(4-(3-(3,4-Dimethylphenyl)ureido)-2-(trifluoromethyl)phenyl)-1-oxoisoindolin-2-yl)-3-methylbutanoic acid] was 10 to 50%; that for `CC(C)[C@@H](C(=O)O)N1Cc2ccc(-c3ccc(NC(=O)c4ccc(C(C)(C)C)cc4)cc3C(F)(F)F)cc2C1=O` [Example 424, (S)-2-(6-(4-(4-tert-Butylbenzamido)-2-(trifluoromethyl)phenyl)-1-oxoisoindolin-2-yl)-3-methylbutanoic acid] was 10 to 50%.
